“And” between values parts separate entries of the source, which are not always exact repeats. Identical values can stand only once. Like-named read-outs stand apart in the source and are kept apart here.
How the values were obtained:
[1] = Brain pharmacokinetics and brain/plasma ratio in male CD-1 mice (1 mg/kg i.v.); assay type: in vivo; settings: for concentration at 5 min / concentration at 0.25 h / concentration at 0.5 h / concentration at 1 h / concentration at 2 h / concentration at 4 h / concentration at 6 h / concentration at 8 h: intravenous
Method: (§1) Male CD-1 mice were given either bolus 1 mg/kg i.v. or 3 mg/kg p.o. of the indicated compounds and plasma or brain concentrations were measured.
(§2) Where: • C0 concentration extrapolated to time zero following an i.v. dose • tmax time at which maximum concentration is observed • Cmax maximum observed concentration • Apparent t1/2 apparent terminal half-life • AUC0-tlast area under the concentration vs time curve from time 0 to the time of the last measurable concentration • AUC0-inf area under the concentration vs time curve from time 0 to infinity • CL systemic clearance • MRT0-inf mean residence time from time zero to infinity • Vss steady-state volume of distribution • F oral bioavailability=(Dose^iv*AUC^po)/(Dose^po*AUC^iv)*100

[2] = Plasma pharmacokinetics in male CD-1 mice (1 mg/kg i.v. or 3 mg/kg p.o.); settings: CD-1, mouse, in vivo
Method: as §1, §2

[3] = male, CD-1, mouse, iv, brain, i.v. 1 mg/kg

For `CCn1c(=O)c2c(nc(/C=C/c3ccc(OC)c(OC)c3)n2C)n(CC)c1=O` [Istradefylline, reference compound], the Brain concentration ([1]; 1 mg/kg bolus i.v., 5 min, individual animals 1-3) was 423 ng/g and 691 ng/g, the Brain concentration ([1]; 1 mg/kg bolus i.v., 0.25 h, individual animals 1-3) was 474 ng/g and 418 ng/g and the Brain concentration ([1]; 1 mg/kg bolus i.v., 0.5 h, individual animals 1-3) was 230 ng/g and 235 ng/g. The Brain concentration ([1]; 1 mg/kg bolus i.v., 1 h, individual animals 1-3) was 209 ng/g and 237 ng/g, the Brain concentration ([1]; 1 mg/kg bolus i.v., 2 h, individual animals 1-3) was 180 ng/g and 156 ng/g and the Brain concentration ([1]; 1 mg/kg bolus i.v., 4 h, individual animals 1-3) was 76.8 ng/g and 79.5 ng/g. The Brain concentration ([1]; 1 mg/kg bolus i.v., 6 h, individual animals 1-3) was 50.1 ng/g and 32.6 ng/g, the Brain concentration ([1]; 1 mg/kg bolus i.v., 8 h, individual animals 1-3) was 22.2 ng/g and 17.1 ng/g and the AUC0-tlast ([1]; brain, i.v. 1 mg/kg) was 938 ng·h/g. It also gave an AUC(0-inf) ([1]; brain, i.v. 1 mg/kg) of 1011 ng·h/g, a Kp at 5 min ([1]; male, CD-1, mouse, brain and plasma, iv, 1 mg/kg, 1 mg/kg bolus i.v., 5 min, individual animals 1-3, read-out: Brain/plasma concentration ratio) of 0.726 and a Kp at 5 min ([1]; male, CD-1, mouse, brain and plasma, iv, 1 mg/kg, 1 mg/kg bolus i.v., 5 min, read-out: Brain/plasma concentration ratio, Mean) of 0.828. For the same molecule, the Kp at 0.25 h ([1]; male, CD-1, mouse, brain and plasma, iv, 1 mg/kg, 1 mg/kg bolus i.v., 0.25 h, individual animals 1-3, read-out: Brain/plasma concentration ratio) was 0.42, the Kp at 0.25 h ([1]; male, CD-1, mouse, brain and plasma, iv, 1 mg/kg, 1 mg/kg bolus i.v., 0.25 h, read-out: Brain/plasma concentration ratio, Mean) was 0.516 and the Kp at 0.5 h ([1]; male, CD-1, mouse, brain and plasma, iv, 1 mg/kg, 1 mg/kg bolus i.v., 0.5 h, read-out: Brain/plasma concentration ratio, Mean) was 0.483. The Kp at 8 h ([1]; male, CD-1, mouse, brain and plasma, iv, 1 mg/kg, 1 mg/kg bolus i.v., 8 h, individual animals 1-3, read-out: Brain/plasma concentration ratio) was 2.76, the Kp at 8 h ([1]; male, CD-1, mouse, brain and plasma, iv, 1 mg/kg, 1 mg/kg bolus i.v., 8 h, read-out: Brain/plasma concentration ratio, Mean) was 2.25 and the concentration at 5 min ([1]; male, CD-1, mouse, brain, 1 mg/kg, 1 mg/kg bolus i.v., 5 min, individual animals 1-3, read-out: Brain concentration) was 545 ng/g. The concentration at 5 min ([1]; male, CD-1, mouse, brain, 1 mg/kg, 1 mg/kg bolus i.v., 5 min, read-out: Brain concentration, Mean) was 553 ng/g, the concentration at 0.25 h ([1]; male, CD-1, mouse, brain, 1 mg/kg, 1 mg/kg bolus i.v., 0.25 h, individual animals 1-3, read-out: Brain concentration) was 272 ng/g and the concentration at 0.25 h ([1]; male, CD-1, mouse, brain, 1 mg/kg, 1 mg/kg bolus i.v., 0.25 h, read-out: Brain concentration, Mean) was 388 ng/g. It also gave a concentration at 0.5 h ([1]; male, CD-1, mouse, brain, 1 mg/kg, 1 mg/kg bolus i.v., 0.5 h, individual animals 1-3, read-out: Brain concentration) of 372 ng/g, a concentration at 0.5 h ([1]; male, CD-1, mouse, brain, 1 mg/kg, 1 mg/kg bolus i.v., 0.5 h, read-out: Brain concentration, Mean) of 279 ng/g and a concentration at 1 h ([1]; male, CD-1, mouse, brain, 1 mg/kg, 1 mg/kg bolus i.v., 1 h, individual animals 1-3, read-out: Brain concentration) of 225 ng/g. It also gave a concentration at 1 h ([1]; male, CD-1, mouse, brain, 1 mg/kg, 1 mg/kg bolus i.v., 1 h, read-out: Brain concentration, Mean) of 224 ng/g, a concentration at 2 h ([1]; male, CD-1, mouse, brain, 1 mg/kg, 1 mg/kg bolus i.v., 2 h, individual animals 1-3, read-out: Brain concentration) of 171 ng/g and a concentration at 2 h ([1]; male, CD-1, mouse, brain, 1 mg/kg, 1 mg/kg bolus i.v., 2 h, read-out: Brain concentration, Mean) of 169 ng/g. For the same molecule, the concentration at 4 h ([1]; male, CD-1, mouse, brain, 1 mg/kg, 1 mg/kg bolus i.v., 4 h, individual animals 1-3, read-out: Brain concentration) was 107 ng/g, the concentration at 4 h ([1]; male, CD-1, mouse, brain, 1 mg/kg, 1 mg/kg bolus i.v., 4 h, read-out: Brain concentration, Mean) was 87.8 ng/g and the concentration at 6 h ([1]; male, CD-1, mouse, brain, 1 mg/kg, 1 mg/kg bolus i.v., 6 h, individual animals 1-3, read-out: Brain concentration) was 39.8 ng/g. For the same molecule, the concentration at 6 h ([1]; male, CD-1, mouse, brain, 1 mg/kg, 1 mg/kg bolus i.v., 6 h, read-out: Brain concentration, Mean) was 40.8 ng/g, the concentration at 8 h ([1]; male, CD-1, mouse, brain, 1 mg/kg, 1 mg/kg bolus i.v., 8 h, individual animals 1-3, read-out: Brain concentration) was 33.4 ng/g and the concentration at 8 h ([1]; male, CD-1, mouse, brain, 1 mg/kg, 1 mg/kg bolus i.v., 8 h, read-out: Brain concentration, Mean) was 24.2 ng/g. For the same molecule, the Kp at 1 h ([1]; male, CD-1, mouse, brain/plasma, iv, 1 mg/kg, 1 mg/kg bolus i.v., 1 h, individual animals 1-3, read-out: Brain/plasma concentration ratio) was 0.534, the Kp at 1 h ([1]; male, CD-1, mouse, brain/plasma, iv, 1 mg/kg, 1 mg/kg bolus i.v., 1 h, read-out: Brain/plasma concentration ratio, Mean) was 0.551 and the Kp at 2 h ([1]; male, CD-1, mouse, brain/plasma, iv, 1 mg/kg, 1 mg/kg bolus i.v., 2 h, individual animals 1-3, read-out: Brain/plasma concentration ratio) was 0.71. It also gave a Kp at 2 h ([1]; male, CD-1, mouse, brain/plasma, iv, 1 mg/kg, 1 mg/kg bolus i.v., 2 h, read-out: Brain/plasma concentration ratio, Mean) of 0.655, a Kp at 4 h ([1]; male, CD-1, mouse, brain/plasma, iv, 1 mg/kg, 1 mg/kg bolus i.v., 4 h, individual animals 1-3, read-out: Brain/plasma concentration ratio) of 0.87 and a Kp at 4 h ([1]; male, CD-1, mouse, brain/plasma, iv, 1 mg/kg, 1 mg/kg bolus i.v., 4 h, read-out: Brain/plasma concentration ratio, Mean) of 1. It also gave a Kp at 6 h ([1]; male, CD-1, mouse, brain/plasma, iv, 1 mg/kg, 1 mg/kg bolus i.v., 6 h, read-out: Brain/plasma concentration ratio, Mean) of 0.96, a Kp ([1]; male, CD-1, mouse, brain/plasma, iv, 1 mg/kg, i.v. 1 mg/kg, read-out: Brain/plasma AUC0-inf ratio) of 0.701 and a Cmax [1, 3] of 553 ng/g. It also gave a Tmax [1, 3] of 5 min, a half-life ([1]; male, CD-1, mouse, iv, brain, i.v. 1 mg/kg, read-out: Apparent t1/2 (converted)) of 2.1 h and an MRT inf ([1]; male, CD-1, mouse, iv, brain, i.v. 1 mg/kg, read-out: MRT0-inf) of 2.96 h. For the same molecule, the bioavailability [2] was 30.9%, the AUC(0-inf) ([2]; iv, 1 mg/kg) was 1440 ng·h/mL and the AUC(0-t) ([2]; iv, 1 mg/kg) was 1420 ng·h/mL. It also gave a Cmax ([2]; iv, 1 mg/kg) of 745 ng/mL, an MRT inf ([2]; iv, 1 mg/kg) of 1.96 h and a Tmax ([2]; iv, 1 mg/kg) of 0.25 h. For the same molecule, the Vd ([2]; iv, 1 mg/kg) was 1.36 L/kg, the clearance ([2]; iv, 1 mg/kg) was 11.6 mL/min/kg and the half-life ([2]; iv, 1 mg/kg) was 1.35 h. For the same molecule, the AUC(0-inf) ([2]; po, 3 mg/kg) was 1340 ng·h/mL, the AUC(0-t) ([2]; po, 3 mg/kg) was 1340 ng·h/mL and the Cmax ([2]; po, 3 mg/kg) was 250 ng/mL. For the same molecule, the MRT inf ([2]; po, 3 mg/kg) was 3.82 h, the Tmax ([2]; po, 3 mg/kg) was 1 h and the half-life ([2]; po, 3 mg/kg) was 2.2 h.
